{"source": "patent US9428500B2", "about": "“Alpha-carbolines for the treatment of cancer” (UNIVERSITA' DEGLI STUDI DI MILANO—BICOCCA, priority 2012, dated 2016)", "key": {"NPM/ALK+ Karpas299 cells": {"system": "NPM/ALK+ Karpas299 cells", "test": "NPM/ALK+ Karpas299 tumour growth in SCID mice", "type": "in vivo", "settings": "oral gavage, 150 mg/kg twice per day, subcutaneous Karpas299 tumors in SCID mice", "description": "The in vivo studies were approved by the Italian Ministry of Research and by the University internal ethical committee, and were run according to guidelines to reduce animal pain. Ten million NPM/ALK+ Karpas299 cells were injected subcutaneously in the right flank of SCID mice. Ten days later, when the tumors reached the size of 100 mm3 on average, mice were randomized either to control arm, receiving vehicle only (0.5% carboxymethylcellulose and 0.1% Tween80), or to treatment arm, receiving compound R533 by oral gavage, 150 mg/kg twice per day. Tumor size was measured bi-weekly by a caliper. General toxicity was assessed by monitoring weight loss, and by visual inspection for any sign of stress or suffering, including eye closure or bulging, ruffled/dull fur, reduced mobility, drowsiness, diarrhea."}, "[1]": {"system": "parental untransformed BaF3 cells", "test": "Tritiated thymidine uptake cell proliferation assay, parental BaF3", "type": "cell-based", "settings": "Mus musculus, BaF3; 3H-thymidine uptake, 72 h, medium with IL-3"}, "[2]": {"system": "BaF3 cells transformed with the oncogenic fusion protein NPM/ALK"}, "[3]": {"system": "BaF3 cells transformed with the oncogenic fusion protein NPM/ALK", "test": "cells", "settings": "read-out: BaF3 NPM/ALK WT IC50"}, "[4]": {"target": "wild-type ALK kinase (rALK) (Homo sapiens (Human), UniProt Q9UM73)", "sequence (Q9UM73 19-1620)": "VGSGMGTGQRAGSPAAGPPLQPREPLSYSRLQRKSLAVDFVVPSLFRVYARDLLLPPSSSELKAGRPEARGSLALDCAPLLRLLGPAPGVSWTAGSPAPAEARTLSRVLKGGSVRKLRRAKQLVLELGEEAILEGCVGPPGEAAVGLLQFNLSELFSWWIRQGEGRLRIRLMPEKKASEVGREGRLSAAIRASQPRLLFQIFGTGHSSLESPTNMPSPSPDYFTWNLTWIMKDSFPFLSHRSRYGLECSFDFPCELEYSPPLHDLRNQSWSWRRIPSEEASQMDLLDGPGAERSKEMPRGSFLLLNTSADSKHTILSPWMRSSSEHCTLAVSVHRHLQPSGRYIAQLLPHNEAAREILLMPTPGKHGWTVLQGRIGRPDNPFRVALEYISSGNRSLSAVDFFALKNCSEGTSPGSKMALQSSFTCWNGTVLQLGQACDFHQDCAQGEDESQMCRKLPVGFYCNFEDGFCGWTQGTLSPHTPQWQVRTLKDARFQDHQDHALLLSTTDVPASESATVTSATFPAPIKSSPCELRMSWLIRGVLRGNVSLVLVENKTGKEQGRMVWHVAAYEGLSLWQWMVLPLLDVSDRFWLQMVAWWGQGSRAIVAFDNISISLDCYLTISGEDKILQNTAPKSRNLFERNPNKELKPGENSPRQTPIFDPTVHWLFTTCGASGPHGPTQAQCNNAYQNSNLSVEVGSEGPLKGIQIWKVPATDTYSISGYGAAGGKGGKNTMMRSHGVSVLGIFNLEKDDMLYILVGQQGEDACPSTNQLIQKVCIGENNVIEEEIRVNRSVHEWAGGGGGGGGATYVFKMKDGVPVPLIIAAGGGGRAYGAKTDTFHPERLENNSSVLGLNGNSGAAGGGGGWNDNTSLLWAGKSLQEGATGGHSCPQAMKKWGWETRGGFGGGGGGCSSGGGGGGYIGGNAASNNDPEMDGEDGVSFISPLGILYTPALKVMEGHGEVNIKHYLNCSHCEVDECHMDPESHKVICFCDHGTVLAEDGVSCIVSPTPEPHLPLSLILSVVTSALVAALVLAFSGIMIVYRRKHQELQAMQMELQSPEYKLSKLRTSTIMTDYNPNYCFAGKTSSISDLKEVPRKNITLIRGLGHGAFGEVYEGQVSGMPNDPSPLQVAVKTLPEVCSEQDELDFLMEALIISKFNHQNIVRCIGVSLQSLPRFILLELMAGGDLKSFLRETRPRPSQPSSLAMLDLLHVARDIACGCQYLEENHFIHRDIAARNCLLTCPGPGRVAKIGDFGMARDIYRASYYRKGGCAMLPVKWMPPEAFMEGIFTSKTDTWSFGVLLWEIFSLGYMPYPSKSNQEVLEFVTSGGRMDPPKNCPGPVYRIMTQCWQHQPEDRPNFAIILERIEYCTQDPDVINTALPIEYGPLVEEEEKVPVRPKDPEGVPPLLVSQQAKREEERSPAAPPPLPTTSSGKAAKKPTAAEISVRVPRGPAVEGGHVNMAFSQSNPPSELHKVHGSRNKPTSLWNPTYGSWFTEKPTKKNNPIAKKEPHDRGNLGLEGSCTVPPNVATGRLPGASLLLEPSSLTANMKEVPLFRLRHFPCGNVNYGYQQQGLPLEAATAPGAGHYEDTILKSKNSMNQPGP", "test": "ELISA-based in vitro kinase assay, wild-type ALK", "type": "biochemical", "settings": "recombinant ALK, 0.3 mM ATP; read-out: ELISA ALK WT IC50", "description": "Recombinant 3C protease was used to remove the GST tag. Purified ALK was used to screen inhibitors in the ELISA-based kinase assay, as follows: Nunc-Immuno 96-well plates were incubated overnight at 30° C. with coating solution containing 2 μg of a specific ALK peptide substrate ([…]) in PBS. Wells were then washed with 200 μL of wash buffer (PBS-Tween 0.05%) and incubated with 4% BSA in PBS for at least 2 h at 30° C. […] For inhibitor testing the reaction mix was preincubated with inhibitor or vehicle for 10 min at room temperature before transferring to the ELISA plate. After the reaction, the wells were washed 5 times with 200 uL of wash buffer. Phosphorylated peptide was detected using 100 μL/well of a mouse monoclonal anti-phosphotyrosine antibody (clone 4G10 UpstateBiotech Ltd) diluted 1:2000 in PBS+4% BSA. After 30 min incubation at room temperature the antibody was removed and wells were washed as described above. 100 μL of a secondary antibody (anti-mouse IgG, Horseradish Peroxidase linked whole antibody, Amersham Pharmacia Biotech) diluted 1:1000 in PBS+4% BSA was added to each well and the plate was incubated again for 30 min at room temperature before washing as above. The plate was developed using 100 μL/well TMB Substrate Solution (Pierce) and the reaction was stopped by adding an equal volume of 1M H2SO4. Finally, the absorbance was read at 450 nm using an ELISA plate reader (Bio-Rad)."}}, "note": "Like-named read-outs stand apart in the source and are kept apart here.", "data": [{"compound": "CN1CCN(c2ccc(-c3ccc4[nH]c5nccc(-c6ccc(Cc7ccccc7)cc6)c5c4c3)cc2)CC1", "note": "[Example 16, 4-(4-Benzylphenyl)-6-[4-(4-methylpiperazin-1-yl)-phenyl]-9H-pyrido[2,3-b]indole]", "values": [{"measurement": "Tumor size (tumour growth curves)", "setting": "NPM/ALK+ Karpas299 cells", "value": "remarkable effect"}, {"measurement": "IC50", "setting": "[1]", "value": 8700, "unit": "nM"}]}, {"compound": "CN1CCN(c2ccc(-c3ccc4[nH]c5nccc(-c6ccc(N7CCN(C)CC7)cc6)c5c4c3)cc2)CC1", "note": "[Example 20, 4,6-Bis-[4-(4-methylpiperazin-1-yl)-phenyl]-9H-pyrido[2,3-b]indole]", "values": [{"measurement": "Selectivity Index (WT)", "setting": "[2]", "value": 7}, {"measurement": "IC50", "setting": "[3]", "value": 520, "unit": "nM"}, {"measurement": "IC50", "setting": "[1]", "value": 3600, "unit": "nM"}, {"measurement": "IC50", "setting": "[4]", "value": 10000, "unit": "nM"}]}, {"compound": "CN1CCN(c2ccc(-c3ccc4[nH]c5nccc(C#Cc6ccccc6C(F)(F)F)c5c4c3)cc2)CC1", "note": "[Example 39, 6-[4-(4-Methylpiperazin-1-yl)-phenyl]-4-(2-trifluoromethyl-phenylethynyl)-9H-pyrido[2,3-b]indole]", "values": [{"measurement": "IC50", "setting": "[1]", "value": 1200, "unit": "nM"}]}, {"compound": "CN1CCN(c2ccc(-c3ccc4[nH]c5nccc(C#Cc6ccc(F)cc6)c5c4c3)cc2)CC1", "note": "[Example 40, 4-((4-Fluorophenyl)ethynyl)-6-[4-(4-methylpiperazin-1-yl)-phenyl]-9H-pyrido[2,3-b]indole]", "values": [{"measurement": "IC50", "setting": "[1]", "value": 920, "unit": "nM"}]}, {"compound": "CN1CCN(c2ccc(-c3ccc4[nH]c5nccc(C#Cc6ccccc6F)c5c4c3)cc2)CC1", "note": "[Example 41, 4-((2-Fluorophenyl)ethynyl)-6-[4-(4-methylpiperazin-1-yl)-phenyl]-9H-pyrido[2,3-b]indole]", "values": [{"measurement": "IC50", "setting": "[1]", "value": 2500, "unit": "nM"}]}, {"compound": "CN1CCN(c2ccc(-c3ccc4[nH]c5nccc(C#Cc6ccccc6Cl)c5c4c3)cc2)CC1", "note": "[Example 42, 4-((2-Chlorophenyl)ethynyl)-6-[4-(4-methylpiperazin-1-yl)-phenyl]-9H-pyrido[2,3-b]indole]", "values": [{"measurement": "IC50", "setting": "[1]", "value": 2100, "unit": "nM"}]}, {"compound": "CC(C)[Si](C#Cc1ccnc2[nH]c3ccc(-c4ccc(N5CCN(C)CC5)cc4)cc3c12)(C(C)C)C(C)C", "note": "[Example 43, 6-(4-(4-Methylpiperazin-1-yl)phenyl)-4-((triisopropylsilyl)ethynyl)-9H-pyrido[2,3-b]indole]", "values": [{"measurement": "IC50", "setting": "[1]", "value": 3400, "unit": "nM"}]}, {"compound": "C#Cc1ccnc2[nH]c3ccc(-c4ccc(N5CCN(C)CC5)cc4)cc3c12", "note": "[Example 44, 4-Ethynyl-6-(4-(4-methylpiperazin-1-yl)phenyl)-9H-pyrido[2,3-b]indole]", "values": [{"measurement": "Selectivity Index (WT)", "setting": "[2]", "value": 2}, {"measurement": "IC50", "setting": "[3]", "value": 170, "unit": "nM"}, {"measurement": "IC50", "setting": "[1]", "value": 350, "unit": "nM"}, {"measurement": "IC50", "setting": "[4]", "value": 29000, "unit": "nM"}]}, {"compound": "COc1ccccc1C#Cc1ccnc2c1c1cc(-c3ccc(N4CCN(C)CC4)cc3)ccc1n2C", "note": "[Example 45, 4-(2-Methoxyphenylethynyl)-9-methyl-6-[4-(4-methylpiperazin-1-yl)-phenyl]-9H-pyrido[2,3-b]indole]", "values": [{"measurement": "Selectivity Index (WT)", "setting": "[2]; BaF3 parental vs NPM/ALK WT", "value": 2}, {"measurement": "IC50", "setting": "[3]", "value": 1100, "unit": "nM"}, {"measurement": "IC50", "setting": "[1]", "value": 2100, "unit": "nM"}, {"measurement": "IC50", "setting": "[4]", "value": 3800, "unit": "nM"}]}, {"compound": "COc1ccc(Sc2ccnc3[nH]c4ccc(-c5ccc(N6CCN(C)CC6)cc5)cc4c23)cc1", "note": "[Example 46, 4-(4-Methoxy-phenylsulfanyl)-6-[4-(4-methyl-piperazin-1-yl)-phenyl]-9H-pyrido[2,3-b]indole]", "values": [{"measurement": "IC50", "setting": "[4]", "value": 5700, "unit": "nM"}]}, {"compound": "Cc1ccc(Cn2cc(-c3ccnc4[nH]c5ccc(-c6ccc(N7CCN(C)CC7)cc6)cc5c34)nn2)cc1", "note": "[Example 47, 4-(1-(4-methylbenzyl)-1H-1,2,3-triazol-4-yl)-6-(4-(4-methylpiperazin-1-yl)phenyl)-9H-pyrido[2,3-b]indole]", "values": [{"measurement": "IC50", "setting": "[4]", "value": 6800, "unit": "nM"}]}, {"compound": "CN1CCN(c2ccc(-c3ccc4[nH]c5nccc(-c6ccc(Oc7ccccc7)cc6)c5c4c3)cc2)CC1", "note": "[Example 48, 6-(4-(4-methylpiperazin-1-yl)phenyl)-4-(4-phenoxyphenyl)-9H-pyrido[2,3-b]indole]", "values": [{"measurement": "IC50", "setting": "[1]", "value": 2100, "unit": "nM"}]}, {"compound": "CN1CCN(c2ccc(-c3ccc4[nH]c5nccc(-c6ccc(-c7ccc(F)cc7)nc6)c5c4c3)cc2)CC1", "note": "[Example 49, 4-(6-(4-fluorophenyl)pyridin-3-yl)-6-(4-(4-methylpiperazin-1-yl)phenyl)-9H-pyrido[2,3-b]indole]", "values": [{"measurement": "IC50", "setting": "[1]", "value": 3200, "unit": "nM"}]}, {"compound": "COc1cc(-c2ccnc3[nH]c4ccc(-c5ccc(N6CCN(C)CC6)cc5)cc4c23)c(OC)cc1C(=O)c1ccccc1", "note": "[Example 50, (2,5-dimethoxy-4-(6-(4-(4-methylpiperazin-1-yl)phenyl)-9H-pyrido[2,3-b]indol-4-yl)phenyl)(phenyl)methanone]", "values": [{"measurement": "IC50", "setting": "[1]", "value": 1100, "unit": "nM"}]}, {"compound": "COc1cc(C(=O)c2ccccc2)c(O)cc1-c1ccnc2[nH]c3ccc(-c4ccc(N5CCN(C)CC5)cc4)cc3c12", "note": "[Example 51, (2-hydroxy-5-methoxy-4-(6-(4-(4-methylpiperazin-1-yl)phenyl)-9H-pyrido[2,3-b]indol-4-yl)phenyl)(phenyl)methanone]", "values": [{"measurement": "IC50", "setting": "[1]", "value": 720, "unit": "nM"}]}, {"compound": "COc1cc(-c2ccnc3[nH]c4ccc(-c5ccc(N6CCN(C)CC6)cc5)cc4c23)c(OC)cc1Cc1ccccc1", "note": "[Example 52, 4-(4-benzyl-2,5-dimethoxyphenyl)-6-(4-(4-methylpiperazin-1-yl)phenyl)-9H-pyrido[2,3-b]indole]", "values": [{"measurement": "IC50", "setting": "[1]", "value": 810, "unit": "nM"}]}, {"compound": "COc1cc(Cc2ccccc2)c(O)cc1-c1ccnc2[nH]c3ccc(-c4ccc(N5CCN(C)CC5)cc4)cc3c12", "note": "[Example 53, 2-benzyl-4-methoxy-5-(6-(4-(4-methylpiperazin-1-yl)phenyl)-9H-pyrido[2,3-b]indol-4-yl)phenol]", "values": [{"measurement": "IC50", "setting": "[1]", "value": 1800, "unit": "nM"}]}, {"compound": "CN1CCN(c2ccc(-c3ccc4[nH]c5nccc(-c6ccc(Cc7ccccc7)cc6C(F)(F)F)c5c4c3)cc2)CC1", "note": "[Example 55, 4-(4-benzyl-2-(trifluoromethyl)phenyl)-6-(4-(4-methylpiperazin-1-yl)phenyl)-9H-pyrido[2,3-b]indole]", "values": [{"measurement": "IC50", "setting": "[1]", "value": 5100, "unit": "nM"}]}, {"compound": "COc1cc(C(O)c2ccccc2)c(OC)cc1-c1ccnc2[nH]c3ccc(-c4ccc(N5CCN(C)CC5)cc4)cc3c12", "note": "(stereo not shown) [Example 57, (2,5-dimethoxy-4-(6-(4-(4-methylpiperazin-1-yl)phenyl)-9H-pyrido[2,3-b]indol-4-yl)phenyl)(phenyl)methanol]", "values": [{"measurement": "IC50", "setting": "[1]", "value": 790, "unit": "nM"}]}, {"compound": "CN1CCN(c2ccc(-c3ccc4[nH]c5nccc(N6CCC(Cc7ccccc7)CC6)c5c4c3)cc2)CC1", "note": "[Example 58, 4-(4-benzylpiperidin-1-yl)-6-(4-(4-methylpiperazin-1-yl)phenyl)-9H-pyrido[2,3-b]indole]", "values": [{"measurement": "IC50", "setting": "[1]", "value": 3300, "unit": "nM"}]}, {"compound": "CN1CCN(c2ccc(-c3ccc4[nH]c5nccc(N6CCN(Cc7ccccc7)CC6)c5c4c3)cc2)CC1", "note": "[Example 59, 4-(4-benzylpiperazin-1-yl)-6-(4-(4-methylpiperazin-1-yl)phenyl)-9H-pyrido[2,3-b]indole]", "values": [{"measurement": "IC50", "setting": "[1]", "value": 830, "unit": "nM"}]}]}
